Data as given in PMC9732821, “Neurotrophic Activity and Its Modulation by Zinc Ion of a Dimeric Peptide Mimicking the Brain-Derived Neurotrophic Factor N-Terminal Region” (ACS Chemical Neuroscience, 2022).

System: membrane-bound BDNF
Test: membrane-bound BDNF, non-permeabilizing immunofluorescence in differentiated SH-SY5Y cells
Format: cell-based, human
Conditions: 1 h
Text: The possibility of mimicking the function of the full-length BDNF protein by using a linear peptide fragment encompassing the first 12 amino acids of the mature NT N-terminal was already postulated.[31] Here, we named this sequence as m-bdnf (Figure 1A) and performed a systematic comparison between the performance of the full-length human BDNF produced recombinantly in Escherichia coli([32]) and (i) m-bdnf, (ii) a dimeric peptide displaying two copies of the m-bdnf sequence covalently bound by a disulfide bridge (d-bdnf), and (iii) a monomeric peptide displaying the scrambled sequence of m-bdnf (s-bdnf). We first investigated the ability of these peptides to activate the TrkB receptor. […] Specifically, an EC50 concentration of BDNF (1 nM) or of d-bdnf (10 μM) was used in combination with the increasing concentration of d-bdnf and BDNF, respectively, and the increase of ERK phosphorylation was assessed. […] Of note, we also performed a non-permeabilizing immunofluorescence analysis to quantify the membrane-bound BDNF in differentiated SH-SY5Y cells in the absence or presence of BDNF and d-bdnf (Figure S1C,D). […] The same increment was not observed upon treatment with the d-bdnf peptide, while instead we measured a slight (∼18%) decrease of the signal possibly due to the ability of the peptide to displace endogenous BDNF at the tested dose (10 μM). […]

## HSDPARRGELSVC-C-VSLEGRRAPDSH (disulfide) [d-bdnf]
d-bdnf 10 μM
  decrease of membrane-bound BDNF fluorescent signal: ~18%

B1: brain-derived neurotrophic factor (protein, UniProt P23560 1-247, looked up)
chain: MTILFLTMVISYFGCMKAAPMKEANIRGQGGLAYPGVRTHGTLESVNGPKAGSRGLTSLADTFEHVIEELLDEDQKVRPNEENNKDADLYTSRVMLSSQVPLEPPLLFLLEEYKNYLDAANMSMRVRRHSDPARRGELSVCDSISEWVTAADKKTAVDMSGGTVTVLEKVPVSKGQLKQYFYETKCNPMGYTKEGCRGIDKRHWNSQCRTTQSYVRALTMDSKKRIGWRFIRIDTSCVCTLTIKRGR
modifications: full-length
notes: full-length human BDNF produced recombinantly in Escherichia coli
BDNF 150 ng/mL
  increase of membrane-bound BDNF fluorescent signal: ~40%
